For data set [1] the following is noted: room temperature, various compositions; cited from earlier work.
Data set [2] can be described thus: Water solubility of cyclodextrin complexes with or without polysorbate 80 / polypowder. The class given is physicochemical. The note with it: aqueous with cosolvent or surfactant or cyclodextrin, complexed with hpbcd, read-out: solubility when complexed with hpbcd.

The structures appear in SMILES notation.

Consider `Cc1cc(C2=NOC(c3cc(Cl)cc(Cl)c3)(C(F)(F)F)C2)ccc1C(=O)NCC(=O)NCC(F)(F)F` (centres unmarked) [Fluralaner, 4-[5-(3,5-dichlorophenyl)-5-trifluoromethyl-4,5-dihydroisoxazol-3-yl]-2-methyl-N-[(2,2,2-trifluoro-ethylcarbamoyl)-methyl]-benzamide], for which the degradation by water in data set [1] is not above 48 h.
As a reminder, the solubility is the concentration that dissolves in the medium under given conditions. In the case of `O=C(NN1C(=O)[C@@H]2[C@@H]3C=C[C@@H]([C@H]4C[C@@H]34)[C@@H]2C1=O)c1ccc(C(F)(F)F)cc1` [tecovirimat], the solubility in data set [2] was more than 10000 µg/mL.

The values above are taken from patent publication US11903962B1, “Isoxazoline complexes and compositions thereof” (priority 2023, dated 2024).
